Data reported in patent publication US7776904B2, “Azabicyclo [3.1.0] hexylphenyl derivatives as modulators of dopamine D3 receptors” (Glaxo Group Limited, priority 2005, dated 2010).

Molecular target: T1, dopamine D3 receptor (Homo sapiens, UniProt P35462)
T1 construct: expressed in transfected cells; membranes prepared from them
Assay: GTPγS scintillation proximity assay (GTPγS-SPA), CHO_D3 cell membranes
Type: biochemical
Conditions: Enantiomer 2 compared with Enantiomer 1 of Example 1
Experimental: Functional potency and intrinsic activity of compounds of this invention can be measured by the following GTPγS scintillation proximity assay (GTPγS-SPA). Cells used in the study are Chinese Hamster Ovary (CHO) Cells.
Compounds may be tested according to two alternative protocols:
a) Cell membranes are prepared as follows. Cell pellets are resuspended in 10 volumes of 50 mM HEPES, 1 mM EDTA pH 7.4, using KOH. On the day the following proteases are added to the buffer just prior to giving the homogenisation buffer.
The cells are homogenised by 2×15 second bursts in a 1 litre Glass Waring blender in a class two biohazard cabinet. The resulting suspension is spun at 500 g for 20 mins (Beckman T21 centrifuge: 1550 rpm). The supernatant is withdrawn with a 25 ml pipette, aliquotted into pre-chilled centrifuge tubes and spun at 48,000 g to pellet membrane fragments (Beckman T1270: 23,000 rpm for 30 mins). The final 48,000 g pellet is resuspended in Homogenisation Buffer, (4× the volume of the original cell pellet). […] Protein content in the membrane preparations is evaluated with the Bradford protein assay.
The final top concentration of test drug is 3 uM in the assay and 11 points serial dilution curves 1:4 in 100% DMSO are carried out using a Biomek FX. […] Assay plates are counted on a Viewlux, 613/55 filter, for 5 min., between 2-6 hours after the final addition. […]

T1 sequence (P35462 whole entry, species assumed): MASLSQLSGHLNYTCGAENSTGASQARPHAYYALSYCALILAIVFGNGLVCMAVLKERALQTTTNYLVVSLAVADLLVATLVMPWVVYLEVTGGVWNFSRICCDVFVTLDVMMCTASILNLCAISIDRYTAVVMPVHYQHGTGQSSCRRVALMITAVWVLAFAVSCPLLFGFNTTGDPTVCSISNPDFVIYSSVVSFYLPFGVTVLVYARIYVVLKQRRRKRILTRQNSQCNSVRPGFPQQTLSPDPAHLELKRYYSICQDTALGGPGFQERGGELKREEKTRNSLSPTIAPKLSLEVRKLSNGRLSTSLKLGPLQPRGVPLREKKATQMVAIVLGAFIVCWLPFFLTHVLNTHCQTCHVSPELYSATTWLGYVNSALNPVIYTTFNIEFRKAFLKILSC

CC(C)c1ccc(S(=O)(=O)Nc2ccc(C34CNCC3C4)cc2)cc1.Cl (single isomer, unassigned; enantiomer 2) [Enantiomer 2, N-{4-[(1R,5R or 1S,5R)-3-azabicyclo[3.1.0]hex-1-yl]phenyl}-4-(1-methylethyl)benzenesulfonamide hydrochloride]
fpki (D3) difference, higher than Enantiomer 1: > 1 log-unit
